Experimental data taken from patent publication US12076432B2, “Method of repairing oxidatively treated hair” (Conopco, Inc., priority 2018, dated 2024).

Key:
[1] = Denaturation temperature (Td) by DSC of soaked and rinsed bleached hair after wash with base wash; conditions: after soak; for Difference from control (Td): rinse and wash with 14% SLES, vs Control (DB) or Control 2; for Td (n = 3): rinse and wash with base wash (14% SLES solution), DSC
Method: (§1) Hair was bleached for 30 min with Platine Precision White Compact Lightening Powder (L'Oreal Professionnel Paris, Paris, France) mixed with 9% cream peroxide, 30 ‘vol’ (Excel GS Ltd, UK) (60 g of powder mixed with 120 g cream peroxide). Hair was then rinsed with water for 2 minutes. This procedure was repeated on the same hair to produce twice bleached hair.
(§2) In the following examples, compositions A-C are comparative examples and 1-6 are in accordance with the invention. The compositions are 1% aqueous solutions of various N-Acetyl amino acids, prepared by adding the N-acetyl amino acid to water with stirring.
(§3) Twice bleached dark brown European hair was soaked for 30 minutes in 1% aqueous solutions of various N-Acetyl amino acids. The hair was then removed from the solution. Clippings from a few fibres were then taken and the denaturation temperature (Td) was measured using DSC.
(§4) The switches from experiment 1 were rinsed in running water for 30 seconds.
The rinsed switches of experiment 2 were washed with base wash (14% SLES solution) and DSC performed.
Hair was washed with a cleansing shampoo using the following method:—
The hair fibres were held under running water for 30 seconds, shampoo applied at a dose of 0.1 ml of shampoo per 1 g of hair and rubbed into the hair for 30 seconds. Excess lather was removed by holding under running water for 30 seconds and the shampoo stage repeated. The hair was rinsed under running water for 1 minute.

[2] = Denaturation temperature (Td) by DSC of soaked bleached hair after subsequent rinse step; conditions: for Difference from control (Td): after soak and 30 seconds rinse, vs Control 1 or Control 2; for Td (n = 3): after soak, rinsed in running water for 30 seconds, DSC
Method: as §1, §2, §3
The effect of a subsequent rinse step was determined.
as §4

[3] = Denaturation temperature (Td) by DSC of bleached hair after soak in 1% aqueous N-acetyl amino acid solution; parameters: Denaturation Temperature Td (n = 3): unit not given here; conditions: hair soaked 30 minutes in 1% aqueous solution; for Denaturation Temperature Td (n = 3): DSC, no rinse; for Difference from control (Td): vs Control 1 or Control 2 (twice bleached hair), in °C (unit assumed)
Method: Hair that has been damaged has internal protein with a reduced denaturation temperature compared to that of virgin hair. The reduction in denaturation temperature is attributed to a degradation of the internal hair cortex proteins.
Hair damage can be measured in different ways. This invention focusses on the structural integrity of hair cortex proteins, as can be determined by Differential Scanning Calorimetry.
as §1, §2
In the following experiments, Control 1 and 2 were from two different batches of twice bleached hair. They were dialysed with water before being used.
as §3

Row | Compound | Difference from control (Td) [1] | Td (n = 3) [1] | Difference from control (Td) [2] | Td (n = 3) [2] | Denaturation Temperature Td (n = 3) [3] | Difference from control (Td) [3]
1 | CC(=O)N[C@@H](C)C(=O)O [N-Acetyl Alanine] | 2.76 °C | 151.11 | 4.2 °C | 152.99 | 156.00 | 7.4
2 | CC(=O)N[C@@H](CCCNC(=N)N)C(=O)O [N-Acetyl Arginine, reference compound] |  |  |  |  | 148.57 | −0.03
3 | CC(=O)N[C@@H](CS)C(=O)O [N-Acetyl Cysteine, reference compound] |  |  |  |  | 149.27 | 0.67
4 | CC(=O)N[C@@H](CCC(=O)O)C(=O)O [N-Acetyl Glutamic acid] | 2.9 °C | 151.26 | 3.89 °C | 152.67 | 154.69 | 6.09
5 | CC(=O)N[C@@H](CCC(N)=O)C(=O)O [N-Acetyl Glutamine] | 2.5 °C | 150.85 | 1.97 °C | 150.75 | 155.15 | 6.55
6 | CC(=O)N[C@@H](Cc1c[nH]cn1)C(=O)O [N-Acetyl Histidine] | 1.93 °C | 147.65 | 1.64 °C | 147.76 | 148.08 | 2.51
7 | CSCC[C@H](NC(C)=O)C(=O)O [N-Acetyl Methionine] | 5.42 °C | 151.14 | 3.85 °C | 149.97 | 153.36 | 7.79
8 | CC(=O)N1CCC[C@H]1C(=O)O [N-Acetyl Proline] | 1.08 °C | 149.43 | 2.16 °C | 150.95 | 154.46 | 5.86
9 | CC(=O)N[C@@H](CO)C(=O)O [N-Acetyl Serine] |  |  | 3.02 °C | 151.80 | 156.25 | 7.65
